Measured values from ChEMBL document CHEMBL2434896, “Carbonic anhydrase inhibitors. Synthesis of heterocyclic 4-substituted pyridine-3-sulfonamide derivatives and their inhibition of the human cytosolic isozymes I and II and transmembrane tumor-associated isozymes IX and XII” (Eur J Med Chem, 2013).
pKi: −log10 of the molar value. Active and inactive are the calls of the source. The rule behind the calls is not given here.

How the values were obtained:
[1] = system: SK-OV-3; assay: Growth inhibition of human SKOV3 cells at 10 uM after 48 hrs by sulforhodamine B assay; assay type: functional
[2] = system: K562; assay: Growth inhibition of human K562 cells at 10 uM after 48 hrs by sulforhodamine B assay; assay type: functional; details: K562, 48 h, read-out: GI
[3] = system: SK-MEL-28; assay: Growth inhibition of human SK-MEL-28 cells at 10 uM after 48 hrs by sulforhodamine B assay; assay type: functional, cell-based
[4] = system: MDA-MB-231; assay: Growth inhibition of human MDA-MB-231 cells at 10 uM after 48 hrs by sulforhodamine B assay; assay type: functional
[5] = system: MDA-MB-468; assay: Growth inhibition of human MDA-MB-468 cells at 10 uM after 48 hrs by sulforhodamine B assay; assay type: functional
[6] = system: UO-31; assay: Growth inhibition of human UO31 cells at 10 uM after 48 hrs by sulforhodamine B assay; assay type: functional; details: UO-31, 48 h, read-out: GI
[7] = system: UACC-257; assay: Growth inhibition of human UACC257 cells at 10 uM after 48 hrs by sulforhodamine B assay; assay type: functional
[8] = system: MDA-MB-435; assay: Growth inhibition of human MDA-MB-435 cells at 10 uM after 48 hrs by sulforhodamine B assay; assay type: functional
[9] = system: TK-10; assay: Growth inhibition of human TK10 cells at 10 uM after 48 hrs by sulforhodamine B assay; assay type: functional
[10] = system: COLO 205; assay: Growth inhibition of human COLO205 cells at 10 uM after 48 hrs by sulforhodamine B assay; assay type: functional
[11] = system: RXF 393; assay: Growth inhibition of human RXF393 cells at 10 uM after 48 hrs by sulforhodamine B assay; assay type: functional
[12] = system: NCI-H226; assay: Growth inhibition of human NCI-H226 cells at 10 uM after 48 hrs by sulforhodamine B assay; assay type: functional; details: NCI-H226, 48 h, read-out: GI
[13] = system: HT-29; assay: Growth inhibition of human HT-29 cells at 10 uM after 48 hrs by sulforhodamine B assay; assay type: functional
[14] = system: HCT-15; assay: Growth inhibition of human HCT15 cells at 10 uM after 48 hrs by sulforhodamine B assay; assay type: functional
[15] = system: U-251; assay: Growth inhibition of human U251 cells at 10 uM after 48 hrs by sulforhodamine B assay; assay type: functional
[16] = system: KM12; assay: Growth inhibition of human KM12 cells at 10 uM after 48 hrs by sulforhodamine B assay; assay type: functional; details: KM12, 48 h, read-out: GI
[17] = system: M14; assay: Growth inhibition of human M14 cells at 10 uM after 48 hrs by sulforhodamine B assay; assay type: functional; details: M14, 48 h, read-out: GI
[18] = system: Hs-578T; assay: Growth inhibition of human Hs 578T cells at 10 uM after 48 hrs by sulforhodamine B assay; assay type: functional
[19] = system: HOP-62; assay: Growth inhibition of human HOP62 cells at 10 uM after 48 hrs by sulforhodamine B assay; assay type: functional
[20] = system: NCI-H460; assay: Growth inhibition of human NCI-H460 cells at 10 uM after 48 hrs by sulforhodamine B assay; assay type: functional
[21] = system: T47D; assay: Growth inhibition of human T47D cells at 10 uM after 48 hrs by sulforhodamine B assay; assay type: functional
[22] = system: ACHN; assay: Growth inhibition of human ACHN cells at 10 uM after 48 hrs by sulforhodamine B assay; assay type: functional
[23] = system: NCI-H23; assay: Growth inhibition of human NCI-H23 cells at 10 uM after 48 hrs by sulforhodamine B assay; assay type: functional; details: NCI-H23, 48 h, read-out: GI
[24] = system: LOX IMVI; assay: Growth inhibition of human LOXIMVI cells at 10 uM after 48 hrs by sulforhodamine B assay; assay type: functional; details: read-out: GI
[25] = system: SW-620; assay: Growth inhibition of human SW620 cells at 10 uM after 48 hrs by sulforhodamine B assay; assay type: functional
[26] = system: SNB-75; assay: Growth inhibition of human SNB75 cells at 10 uM after 48 hrs by sulforhodamine B assay; assay type: functional; details: SNB-75, 48 h, read-out: GI
[27] = system: OVCAR-3; assay: Growth inhibition of human OVCAR3 cells at 10 uM after 48 hrs by sulforhodamine B assay; assay type: functional
[28] = system: 786-0; assay: Growth inhibition of human 786-0 cells at 10 uM after 48 hrs by sulforhodamine B assay; assay type: functional; details: 786-0, 48 h, read-out: GI
[29] = system: MOLT-4; assay: Growth inhibition of human MOLT4 cells at 10 uM after 48 hrs by sulforhodamine B assay; assay type: functional; details: MOLT-4, 48 h, read-out: GI
[30] = system: SF-295; assay: Growth inhibition of human SF295 cells at 10 uM after 48 hrs by sulforhodamine B assay; assay type: functional
[31] = system: OVCAR-8; assay: Growth inhibition of human OVCAR8 cells at 10 uM after 48 hrs by sulforhodamine B assay; assay type: functional
[32] = system: SNB-19; assay: Growth inhibition of human SNB19 cells at 10 uM after 48 hrs by sulforhodamine B assay; assay type: functional
[33] = system: HL-60(TB); assay: Growth inhibition of human HL-60(TB) cells at 10 uM after 48 hrs by sulforhodamine B assay; assay type: functional; details: HL-60, 48 h, read-out: GI
[34] = system: MCF7; assay: Growth inhibition of human MCF7 cells at 10 uM after 48 hrs by sulforhodamine B assay; assay type: functional
[35] = system: A498; assay: Growth inhibition of human A498 cells at 10 uM after 48 hrs by sulforhodamine B assay; assay type: functional; details: A498, 48 h, read-out: GI
[36] = system: A549; assay: Growth inhibition of human A549/ATCC cells at 10 uM after 48 hrs by sulforhodamine B assay; assay type: functional
[37] = system: UACC-62; assay: Growth inhibition of human UACC62 cells at 10 uM after 48 hrs by sulforhodamine B assay; assay type: functional
[38] = system: SF-268; assay: Growth inhibition of human SF268 cells at 10 uM after 48 hrs by sulforhodamine B assay; assay type: functional; details: SF-268, 48 h, read-out: GI
[39] = system: SR; assay: Growth inhibition of human SR cells at 10 uM after 48 hrs by sulforhodamine B assay; assay type: functional; details: read-out: GI
[40] = system: OVCAR-4; assay: Growth inhibition of human OVCAR4 cells at 10 uM after 48 hrs by sulforhodamine B assay; assay type: functional
[41] = system: HCT-116; assay: Growth inhibition of human HCT116 cells at 10 uM after 48 hrs by sulforhodamine B assay; assay type: functional; details: HCT-116, 48 h, read-out: GI
[42] = system: EKVX; assay: Growth inhibition of human EKVX cells at 10 uM after 48 hrs by sulforhodamine B assay; assay type: functional
[43] = system: Malme-3M; assay: Growth inhibition of human MALME-3M cells at 10 uM after 48 hrs by sulforhodamine B assay; assay type: functional; details: read-out: GI
[44] = system: SK-MEL-2; assay: Growth inhibition of human SK-MEL-2 cells at 10 uM after 48 hrs by sulforhodamine B assay; assay type: functional
[45] = system: NCI-H522; assay: Growth inhibition of human NCI-H522 cells at 10 uM after 48 hrs by sulforhodamine B assay; assay type: functional
[46] = system: SK-MEL-5; assay: Growth inhibition of human SK-MEL-5 cells at 10 uM after 48 hrs by sulforhodamine B assay; assay type: functional
[47] = system: NCI/ADR-RES; assay: Growth inhibition of human NCI-ADR-RES cells at 10 uM after 48 hrs by sulforhodamine B assay; assay type: functional
[48] = system: OVCAR-5; assay: Growth inhibition of human OVCAR5 cells at 10 uM after 48 hrs by sulforhodamine B assay; assay type: functional
[49] = system: SF-539; assay: Growth inhibition of human SF539 cells at 10 uM after 48 hrs by sulforhodamine B assay; assay type: functional; details: SF-539, 48 h, read-out: GI
[50] = system: NCI-H322M; assay: Growth inhibition of human NCI-H322M cells at 10 uM after 48 hrs by sulforhodamine B assay; assay type: functional
[51] = system: BT-549; assay: Growth inhibition of human BT549 cells at 10 uM after 48 hrs by sulforhodamine B assay; assay type: functional; details: BT-549, 48 h, read-out: GI
[52] = molecular target: Carbonic anhydrase 9 (Homo sapiens, UniProt Q16790); assay: Inhibition of human carbonic anhydrase 9 after 15 mins by stopped flow CO2 hydration assay
[53] = system: CAKI-1; assay: Growth inhibition of human CAKI-1 cells at 10 uM after 48 hrs by sulforhodamine B assay; assay type: functional
[54] = system: HCC 2998; assay: Growth inhibition of human HCC2998 cells at 10 uM after 48 hrs by sulforhodamine B assay; assay type: functional
[55] = system: SN12C; assay: Growth inhibition of human SN12C cells at 10 uM after 48 hrs by sulforhodamine B assay; assay type: functional
[56] = system: DU-145; assay: Growth inhibition of human DU145 cells at 10 uM after 48 hrs by sulforhodamine B assay; assay type: functional
[57] = system: IGROV-1; assay: Growth inhibition of human IGROV1 cells at 10 uM after 48 hrs by sulforhodamine B assay; assay type: functional

NS(=O)(=O)c1cnccc1N1CCN(Cc2ccccc2)CC1
growth inhibition (GI) [1]: inactive
inhibition of growth at 10 µM [2]: 3%
growth inhibition (GI) [3]: inactive
growth inhibition (GI) [4]: inactive
growth inhibition (GI) [5]: inactive
inhibition of growth at 10 µM [6]: 14%
growth inhibition (GI) [7]: inactive
growth inhibition (GI) [8]: inactive
growth inhibition (GI) [9]: inactive
growth inhibition (GI) [10]: inactive
growth inhibition (GI) [11]: inactive
inhibition of growth at 10 µM [12]: 1%
growth inhibition (GI) [13]: inactive
growth inhibition (GI) [14]: inactive
growth inhibition (GI) [15]: inactive
inhibition of growth at 10 µM [16]: 1%
inhibition of growth at 10 µM [17]: 2%
growth inhibition (GI) [18]: inactive
growth inhibition (GI) [19]: inactive
growth inhibition (GI) [20]: inactive
growth inhibition (GI) [21]: inactive
growth inhibition (GI) [22]: inactive
inhibition of growth at 10 µM [23]: 1%
inhibition of growth at 10 µM [24]: 4%
growth inhibition (GI) [25]: inactive
inhibition of growth at 10 µM [26]: 7%
growth inhibition (GI) [27]: inactive
inhibition of growth at 10 µM [28]: 6%
inhibition of growth at 10 µM [29]: 5%
growth inhibition (GI) [30]: inactive
growth inhibition (GI) [31]: inactive
growth inhibition (GI) [32]: inactive
inhibition of growth at 10 µM [33]: 8%
growth inhibition (GI) [34]: inactive
inhibition of growth at 10 µM [35]: 5%
growth inhibition (GI) [36]: inactive
growth inhibition (GI) [37]: inactive
inhibition of growth at 10 µM [38]: 3%
inhibition of growth at 10 µM [39]: 13%
growth inhibition (GI) [40]: inactive
inhibition of growth at 10 µM [41]: 6%
growth inhibition (GI) [42]: inactive
inhibition of growth at 10 µM [43]: 1%
growth inhibition (GI) [44]: inactive
growth inhibition (GI) [45]: inactive
growth inhibition (GI) [46]: inactive
growth inhibition (GI) [47]: inactive
growth inhibition (GI) [48]: inactive
inhibition of growth at 10 µM [49]: 6%
growth inhibition (GI) [50]: inactive
inhibition of growth at 10 µM [51]: 9%
pKi [52]: 7.35
growth inhibition (GI) [53]: inactive
growth inhibition (GI) [54]: inactive
growth inhibition (GI) [55]: inactive
growth inhibition (GI) [56]: inactive
growth inhibition (GI) [57]: inactive
